This is an account of results in ChEMBL document CHEMBL4627268, “Development of a potent and orally active activator of adenosine monophosphate-activated protein kinase (AMPK), ASP4132, as a clinical candidate for the treatment of human cancer” (Bioorg Med Chem, 2020).

One may read the AUC(0-t) as the area under the concentration-time curve up to a stated or last time point. Usually clearance stands for a measure of how efficiently the substance is removed, as volume per time. Read a low clearance as a low capacity for elimination. One may read the Cmax as the peak of the concentration-time curve. The term Tmax denotes the time from dosing to the highest level. Broadly, the bioavailability is the share of a dose that reaches the circulation, judged against a reference dose that is usually intravenous. The low end stands for poor availability, the high end for good availability.

A short description of data set [1]: Intrinsic clearance in human liver microsomes at 0.1 to 0.2 umol/L incubated for 30 mins in presence of NADPH by LC-MS/MS analysis. Type of data set: ADME, Microsome. Conditions: read-out: CLH.
Data set [2] can be described thus: AUC (0 to 24 hrs) in Sprague-Dawley rat at 1 mg/kg, iv by LC-MS/MS analysis. More on the design: time < 24 hr, dose 1 mg/kg, route intravenous. Format: ADME, organism-based. As to conditions: in vivo.
The nature of data set [3]: Elimination half-life in Sprague-Dawley rat at 1 mg/kg, iv by LC-MS/MS analysis. Format: ADME, organism-based. Conditions: in vivo, read-out: beta t1/2 (converted).
Data set [4] in a line: Volume of distribution at steady state in Sprague-Dawley rat at 1 mg/kg, iv by LC-MS/MS analysis. Format: ADME, organism-based. As to conditions: in vivo, read-out: Vdss.
A short description of data set [5]: Total clearance in Sprague-Dawley rat at 1 mg/kg, iv by LC-MS/MS analysis. Format: ADME, organism-based. Conditions: in vivo.
Data set [6] in a line: AUC (0 to 24 hrs) in Sprague-Dawley rat at 1 mg/kg, po by LC-MS/MS analysis. Format: ADME, organism-based. More on the design: time < 24 hr, dose 1 mg/kg, route oral. Conditions: in vivo.
Data set [7] in a line: Cmax in Sprague-Dawley rat at 1 mg/kg, po by LC-MS/MS analysis. More on the design: dose 1 mg/kg, route oral. Conditions: in vivo. Type of data set: ADME, organism-based.
Data set [8] can be described thus: Tmax in Sprague-Dawley rat at 1 mg/kg, po by LC-MS/MS analysis. Conditions: in vivo. Type of data set: ADME, organism-based.
A short description of data set [9]: Oral bioavailability in Sprague-Dawley rat at 1 mg/kg by LC-MS/MS analysis. Format: ADME, organism-based. Conditions: in vivo.
Data set [10] is described as follows: Drug metabolism in Sprague-Dawley rat hepatocytes assessed as esterase-mediated anilide hydrolysis. Format: ADME, cell-based. As to conditions: isolated protein.

SMILES strings stand for the structures.

Regarding `O=C(Nc1ccc(C(=O)N2CCN(Cc3ccc(C(F)(F)F)cc3)CC2)cc1)N1CCN(Cc2ccc(C(F)(F)F)cc2)CC1`, the CLint scaled in [1] was determined as 158 mL/min/kg.

Take `COc1ccc(CN2CCN(C(=O)Nc3ccc(C(=O)N4CCN(Cc5ccc(C(F)(F)F)cc5)CC4)cc3)CC2)cc1`: the CLint scaled in [1] worked out at 185 mL/min/kg.

In the case of `COc1ccc(CN2CCC(C(=O)Nc3ccc(C(=O)N4CCN(Cc5ccc(C(F)(F)F)cc5)CC4)cc3)CC2)cn1`, in data set [1], the CLint scaled amounted to 77 mL/min/kg. In addition, the AUC(0-t) at 24 h in data set [2] is 123 ng·h/mL; in [6], 13.3 ng·h/mL. In addition, in [3], the half-life is 3.5 h. The Vd in data set [4] was found to be 50.9 L/kg. Moreover, the clearance in data set [5] amounted to 137 mL/min/kg. The same compound registered a Cmax in [7] of 1.9 ng/mL. For the same compound, the time of peak concentration (Tmax) in [8] is 0.5 h. This compound also came in with a bioavailability in data set [9] of 11%. Also, in data set [10], the Drug metabolism result is on record as “Metabolite_Detected”.

Turning to `COc1ccc(CN2CCC(c3ccc4[nH]c(C(=O)N5CCN(Cc6ccc(C(F)(F)F)cc6)CC5)nc4c3)CC2)cn1.Cc1ccc(S(=O)(=O)O)cc1.Cc1ccc(S(=O)(=O)O)cc1`, the CLint scaled in [1] turned out to be 61 mL/min/kg. Moreover, the AUC(0-t) at 24 h is 887 ng·h/mL in data set [2] and 705 ng·h/mL in data set [6]. The half-life in data set [3] is 3.6 h. Also, in [4], the Vd is 4.6 L/kg. The compound further showed a clearance in data set [5] of 19 mL/min/kg. Moreover, the Cmax in [7] was found to be 72 ng/mL. Also, the time to peak (Tmax) in data set [8] amounted to 1.7 h. Moreover, the bioavailability in data set [9] was 80%.
